Results: patent publication US20250134890A1, “ANTIMALARIAL HEXAHYDROPYRIMIDINE ANALOGUES” (UCB BIOPHARMA SRL, priority 2022, published 2025)
pIC50: −log10 of the molar value. Counter-ions that a name gives are not always drawn.

Test system: Plasmodium falciparum: 3D7 strain
Experiment: P. falciparum 3D7 asexual blood stage assay (SYBR green readout)
Format: cell-based
Conditions: Plasmodium falciparum, 3D7, Erythrocyte, 72 h, P. falciparum 3D7 in human erythrocytes, 72 h incubation, SYBR green fluorescence
How it was run: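 3D7-infected erythrocytes (5% haematocrit, 0.5% parasitaemia) were exposed 72 h at 37 °C under 1% O2/3% CO2 to a 20-point titration (50,000-15 nM final, 0.5% DMSO). Parasite DNA was read by SYBR green fluorescence after overnight lysis. Percent inhibition was set against mefloquine and DMSO, and EC50 came from a biphasic two-site fit.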

Row | SMILES | pIC50
1 | C[C@H]1C[C@@H](N2C(=N)N[C@](C)(c3cccc(-c4ccnnc4)c3Cl)CC2=O)CCO1 [Example 33, (6S)-6-[2-Chloro-3-(pyridazin-4-yl)phenyl]-2-imino-6-methyl-3-[(2S,4S)-2-methyltetrahydropyran-4-yl]hexahydropyrimidin-4-one trifluoroacetic acid salt] | 6.73
2 | C[C@H]1C[C@@H](N2C(=N)N[C@](C)(c3cccc(-c4ccn(C)c(=O)c4)c3Cl)CC2=O)CCO1 [Example 34, (6S)-6-[2-Chloro-3-(1-methyl-2-oxopyridin-4-yl)phenyl]-2-imino-6-methyl-3-[(2S,4S)-2-methyl-tetrahydropyran-4-yl]hexahydro-pyrimidin-4-one trifluoroacetic acid salt] | 6.54
3 | C[C@H]1C[C@@H](N2C(=N)N[C@](C)(c3cccc(-c4cccc5ccccc45)c3Cl)CC2=O)CCO1 [Example 35, (6S)-6-[2-Chloro-3-(naphth-1-yl)-phenyl]-2-imino-6-methyl-3-[(2S,4S)-2-methyltetrahydropyran-4-yl]hexahydropyrimidin-4-one trifluoroacetic acid salt] | 6.45
4 | CC(C)c1ccccc1-c1cccc([C@]2(C)CC(=O)N([C@H]3CCO[C@@H](C)C3)C(=N)N2)c1Cl [Example 36, (6S)-6-[2-Chloro-3-(2-isopropyl-phenyl)phenyl]-2-imino-6-methyl-3-[(2S,4S)-2-methyltetrahydro-pyran-4-yl]hexahydropyrimidin-4-one trifluoroacetic acid salt] | 7.02
5 | C[C@H]1C[C@@H](N2C(=N)N[C@](C)(c3cccc(-c4ccccc4C(F)(F)F)c3Cl)CC2=O)CCO1 [Example 37, (6S)-6-{2-Chloro-3-[2-(trifluoro-methyl)phenyl]phenyl}-2-imino-6-methyl-3-[(2S,4S)-2-methyl-tetrahydropyran-4-yl]hexahydro-pyrimidin-4-one trifluoroacetic acid salt] | 7.17
6 | C[C@H]1C[C@@H](N2C(=N)N[C@](C)(c3cccc(-c4ccc(F)c(F)c4)c3Cl)CC2=O)CCO1 [Example 38, (6S)-6-[2-Chloro-3-(3,4-difluoro-phenyl)phenyl]-2-imino-6-methyl-3-[(2S,4S)-2-methyltetrahydro-pyran-4-yl]hexahydropyrimidin-4-one trifluoroacetic acid salt] | 6.87
7 | C[C@H]1C[C@@H](N2C(=N)N[C@](C)(c3cccc(-c4ccncc4)c3Cl)CC2=O)CCO1 [Example 39, (6S)-6-[2-Chloro-3-(pyridin-4-yl)-phenyl]-2-imino-6-methyl-3-[(2S,4S)-2-methyltetrahydropyran-4-yl]hexahydropyrimidin-4-one trifluoroacetic acid salt] | 6.57
8 | C[C@H]1C[C@@H](N2C(=N)N[C@](C)(c3cccc(-c4cccc(C#N)c4)c3Cl)CC2=O)CCO1 [Example 40, 3-(2-Chloro-3-{(4S)-2-imino-4-methyl-1-[(2S,4S)-2-methyl-tetrahydropyran-4-yl]-6-oxo-hexahydropyrimidin-4-yl}phenyl)-benzonitrile trifluoroacetic acid salt] | 7.30
9 | C[C@H]1C[C@@H](N2C(=N)N[C@](C)(c3cccc(-c4cncnc4)c3Cl)CC2=O)CCO1 [Example 41, (6S)-6-[2-Chloro-3-(pyrimidin-5-yl)phenyl]-2-imino-6-methyl-3-[(2S,4S)-2-methyltetrahydropyran-4-yl]hexahydropyrimidin-4-one trifluoroacetic acid salt] | 6.84
10 | C[C@H]1C[C@@H](N2C(=N)N[C@](C)(c3cccc(-c4cc(F)ccc4F)c3Cl)CC2=O)CCO1 [Example 42, (6S)-6-[2-Chloro-3-(2,5-difluoro-phenyl)phenyl]-2-imino-6-methyl-3-[(2S,4S)-2-methyltetrahydro-pyran-4-yl]hexahydropyrimidin-4-one trifluoroacetic acid salt] | 7.06
11 | COc1ccc(-c2cccc([C@]3(C)CC(=O)N([C@H]4CCO[C@@H](C)C4)C(=N)N3)c2Cl)cn1 [Example 43, (6S)-6-[2-Chloro-3-(6-methoxy-pyridin-3-yl)phenyl]-2-imino-6-methyl-3-[(2S,4S)-2-methyl-tetrahydropyran-4-yl]hexahydro-pyrimidin-4-one trifluoroacetic acid salt] | 7.03
12 | C[C@H]1C[C@@H](N2C(=N)N[C@](C)(c3cccc(-c4cc(F)cc(F)c4)c3Cl)CC2=O)CCO1 [Example 44, (6S)-6-[2-Chloro-3-(3,5-difluoro-phenyl)phenyl]-2-imino-6-methyl-3-[(2S,4S)-2-methyltetrahydro-pyran-4-yl]hexahydropyrimidin-4-one trifluoroacetic acid salt] | 6.99
13 | C[C@H]1C[C@@H](N2C(=N)N[C@](C)(c3cccc(-c4ccn[nH]4)c3Cl)CC2=O)CCO1 [Example 45, (6S)-6-[2-Chloro-3-(1H-pyrazol-5-yl)phenyl]-2-imino-6-methyl-3-[(2S,4S)-2-methyltetrahydropyran-4-yl]hexahydropyrimidin-4-one trifluoroacetic acid salt] | 7.92
14 | C[C@H]1C[C@@H](N2C(=N)N[C@](C)(c3cccc(-c4ccccc4Cl)c3Cl)CC2=O)CCO1 [Example 46, (6S)-6-[2-Chloro-3-(2-chloro-phenyl)phenyl]-2-imino-6-methyl-3-[(2S,4S)-2-methyltetrahydro-pyran-4-yl]hexahydropyrimidin-4-one trifluoroacetic acid salt] | 6.98
15 | C[C@H]1C[C@@H](N2C(=N)N[C@](C)(c3cccc(-c4c(F)cccc4F)c3Cl)CC2=O)CCO1 [Example 47, (6S)-6-[2-Chloro-3-(2,6-difluoro-phenyl)phenyl]-2-imino-6-methyl-3-[(2S,4S)-2-methyltetrahydro-pyran-4-yl]hexahydropyrimidin-4-one trifluoroacetic acid salt] | 7.36
16 | C[C@H]1C[C@@H](N2C(=N)N[C@](C)(c3cccc(-c4cccc(C(F)(F)F)c4)c3Cl)CC2=O)CCO1 [Example 48, (6S)-6-{2-Chloro-3-[3-(trifluoro-methyl)phenyl]phenyl}-2-imino-6-methyl-3-[(2S,4S)-2-methyl-tetrahydropyran-4-yl]hexahydro-pyrimidin-4-one trifluoroacetic acid salt] | 7.18
17 | C[C@H]1C[C@@H](N2C(=N)N[C@](C)(c3cccc(-c4cccnc4)c3Cl)CC2=O)CCO1 [Example 49, (6S)-6-[2-Chloro-3-(pyridin-3-yl)-phenyl]-2-imino-6-methyl-3-[(2S,4S)-2-methyltetrahydropyran-4-yl]hexahydropyrimidin-4-one trifluoroacetic acid salt] | 7.52
18 | C[C@H]1C[C@@H](N2C(=N)N[C@](C)(c3cccc(-c4cccc(F)c4F)c3Cl)CC2=O)CCO1 [Example 50, (6S)-6-[2-Chloro-3-(2,3-difluoro-phenyl)phenyl]-2-imino-6-methyl-3-[(2S,4S)-2-methyltetrahydro-pyran-4-yl]hexahydropyrimidin-4-one trifluoroacetic acid salt] | 7.08
19 | C[C@H]1C[C@@H](N2C(=N)N[C@](C)(c3cccc(-c4ccc(F)cc4F)c3Cl)CC2=O)CCO1 [Example 51, (6S)-6-[2-Chloro-3-(2,4-difluoro-phenyl)phenyl]-2-imino-6-methyl-3-[(2S,4S)-2-methyltetrahydro-pyran-4-yl]hexahydropyrimidin-4-one trifluoroacetic acid salt] | 7.02
20 | Cc1cc(-c2cccc([C@]3(C)CC(=O)N([C@H]4CCO[C@@H](C)C4)C(=N)N3)c2Cl)n(C)n1 [Example 52, (6S)-6-[2-Chloro-3-(2,5-dimethyl-pyrazol-3-yl)phenyl]-2-imino-6-methyl-3-[(2S,4S)-2-methyl-tetrahydropyran-4-yl]hexahydro-pyrimidin-4-one trifluoroacetic acid salt] | 6.36
21 | C[C@H]1C[C@@H](N2C(=N)N[C@](C)(c3cccc(-c4cccc(-c5ccn[nH]5)c4)c3Cl)CC2=O)CCO1 [Example 53, (6S)-6-{2-Chloro-3-[3-(1H-pyrazol-5-yl)phenyl]phenyl}-2-imino-6-methyl-3-[(2S,4S)-2-methyl-tetrahydropyran-4-yl]hexahydro-pyrimidin-4-one trifluoroacetic acid salt] | 7.60
22 | C[C@H]1C[C@@H](N2C(=N)N[C@](C)(c3cccc(-c4cnoc4)c3Cl)CC2=O)CCO1 [Example 54, (6S)-6-[2-Chloro-3-(isoxazol-4-yl)-phenyl]-2-imino-6-methyl-3-[(2S,4S)-2-methyltetrahydropyran-4-yl]hexahydropyrimidin-4-one trifluoroacetic acid salt] | 7.38
23 | C[C@H]1C[C@@H](N2C(=N)N[C@](C)(c3cccc(-c4ccc(Cl)nc4)c3Cl)CC2=O)CCO1 [Example 55, (6S)-6-[2-Chloro-3-(6-chloro-pyridin-3-yl)phenyl]-2-imino-6-methyl-3-[(2S,4S)-2-methyl-tetrahydropyran-4-yl]hexahydro-pyrimidin-4-one trifluoroacetic acid salt] | 7.96
24 | C[C@H]1C[C@@H](N2C(=N)N[C@](C)(c3cccc(-c4cccc5cnn(C)c45)c3Cl)CC2=O)CCO1 [Example 56, (6S)-6-[2-Chloro-3-(1-methyl-indazol-7-yl)phenyl]-2-imino-6-methyl-3-[(2S,4S)-2-methyl-tetrahydropyran-4-yl]hexahydro-pyrimidin-4-one trifluoroacetic acid salt] | 7.37
25 | C[C@H]1C[C@@H](N2C(=N)N[C@](C)(c3cccc(-c4ccncc4Cl)c3Cl)CC2=O)CCO1 [Example 57, (6S)-6-[2-Chloro-3-(3-chloro-pyridin-4-yl)phenyl]-2-imino-6-methyl-3-[(2S,4S)-2-methyl-tetrahydropyran-4-yl]hexahydro-pyrimidin-4-one trifluoroacetic acid salt] | 7.21
26 | COc1cncc(-c2cccc([C@]3(C)CC(=O)N([C@H]4CCO[C@@H](C)C4)C(=N)N3)c2Cl)c1 [Example 58, (6S)-6-[2-Chloro-3-(5-methoxy-pyridin-3-yl)phenyl]-2-imino-6-methyl-3-[(2S,4S)-2-methyl-tetrahydropyran-4-yl]hexahydro-pyrimidin-4-one trifluoroacetic acid salt] | 6.91
